In assay [1] the target is human KHK-C (Homo sapiens (Human), UniProt P50053). The experiment in a line: KHK Biochemical Assay (IC50), ADP-Glo, KHK-C. The following applies: ADP-Glo; average of at least two separate assays. The essentials:
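ADP-Glo luminescence measured ADP made over a 4 h room-temperature reaction of ATP plus fructose, started after 30 min compound–enzyme pre-incubation. Buffer: 50 mM Hepes pH 7.4, 140 mM KCl, 5 mM MgCl2, 0.01% Triton-X. Enzyme was His-tagged, BL21 (DE3)-expressed, Ni-NTA-purified; compounds in 1:3 DMSO dilution series.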
A general note: In ADP-Glo the light output rises with the ADP produced.

In assay [2] the target is human KHK-A (Homo sapiens (Human), UniProt P50053). Briefly: KHK Biochemical Assay (IC50), ADP-Glo, KHK-A. As to conditions: ADP-Glo; average of at least two separate assays. On the procedure: The His-tagged fusion protein was expressed using BL21 (DE3) with IPTG induction and purified using Ni-NTA column followed by dialysis into final buffer containing 25 mM Tris-HCl pH 8.0, 250 mM NaCl.
human KHK-A, sequence (P50053 other isoform, or with tags, fused parts or gaps): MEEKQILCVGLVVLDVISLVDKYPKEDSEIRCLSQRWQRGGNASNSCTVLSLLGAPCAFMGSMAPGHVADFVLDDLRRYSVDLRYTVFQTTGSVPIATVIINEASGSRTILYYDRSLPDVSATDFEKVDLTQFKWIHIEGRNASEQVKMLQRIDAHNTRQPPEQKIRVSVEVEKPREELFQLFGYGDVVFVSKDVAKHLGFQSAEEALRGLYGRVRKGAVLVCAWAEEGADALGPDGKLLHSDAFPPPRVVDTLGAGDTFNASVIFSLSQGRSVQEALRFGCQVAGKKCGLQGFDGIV
KHK Biochemical Assay (IC50)
Compounds were tested for KHK enzyme inhibition in a high-throughput 384-well assay format using the ADP-Glo assay (Promega) in buffer consisting of 50 mM Hepes (pH 7.4), 140 mM KCl, 5 mM MgCl2 and 0.01% Triton-X. 0.2 nM. […] Compounds were serially diluted (1:3) in DMSO.
The compounds were pre-incubated with 5 μL of 2× final enzyme concentration for 30 minutes before adding 5 μL of 2× final concentration of ATP and fructose. The plates were incubated at room temperature for 4 hours before adding ADP-Glo reagent to quench the enzyme reaction, followed by incubation at room temperature for 1 hour. The ADP-Glo detection reagent was then added to the plates and luminescence was measured on the Envision plate reader after 1 hour.

In patent US12410160B2 (Gilead Sciences, Inc., priority 2021, dated 2025) one finds IC50 data, which are given here for 29 compounds.

Where “and” joins values, the source holds several entries; their conditions need not be identical. Identical values can stand only once.

human KHK-C, sequence (P50053 whole entry): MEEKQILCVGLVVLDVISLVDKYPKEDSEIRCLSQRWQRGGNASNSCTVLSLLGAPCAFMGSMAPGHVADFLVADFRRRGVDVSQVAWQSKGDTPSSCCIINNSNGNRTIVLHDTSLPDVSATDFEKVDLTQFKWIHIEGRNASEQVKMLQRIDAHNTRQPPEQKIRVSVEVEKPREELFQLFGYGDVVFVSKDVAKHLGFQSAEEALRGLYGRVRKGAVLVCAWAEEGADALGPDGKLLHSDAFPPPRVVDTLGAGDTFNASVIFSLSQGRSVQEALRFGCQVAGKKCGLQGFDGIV

As usually defined, the IC50 is the concentration that inhibits the measured activity by half. Low readings indicate inhibition by little substance, high ones a need for much substance. Turning to `Cc1noc(C)c1S(=O)(=O)Nc1cccc(-c2nc(N3CC[C@@H]3C)nc3c2CCC3)c1` [Example 76, (S)-3,5-dimethyl-N-(3-(2-(2-methylazetidin-1-yl)-6,7-dihydro-5H-cyclopenta[d]pyrimidin-4-yl)phenyl)isoxazole-4-sulfonamide], the figures for the IC50 in assay [1] and in assay [2] were 876 nM and 1150 nM, respectively.

`C[C@H]1CCN1c1nc2c(c(-c3cccc(C(=O)N4CC[C@H]4C(=O)O)c3)n1)CCC2` [Example 77, (S)-1-(3-(2-((S)-2-methylazetidin-1-yl)-6,7-dihydro-5H-cyclopenta[d]pyrimidin-4-yl)benzoyl)azetidine-2-carboxylic acid]: the IC50 in assay [1] came out at 315 nM; in assay [2], 285 nM.

On to `C[C@H]1CCN1c1nc2c(c(-c3cccc(C(=O)N4CC[C@@H]4C(=O)O)c3)n1)CCC2` [Example 78, (R)-1-(3-(2-((S)-2-methylazetidin-1-yl)-6,7-dihydro-5H-cyclopenta[d]pyrimidin-4-yl)benzoyl)azetidine-2-carboxylic acid], for which the IC50 is 239 nM and 129 nM in assay [1]; 193 nM and 134 nM in assay [2].

With `CC(=O)Nc1ncc(S(=O)(=O)Nc2cccc(-c3nc(N4CC[C@@H]4C)nc4c3CCC4)c2)s1` [Example 84, (S)—N-(5-(N-(3-(2-(2-methylazetidin-1-yl)-6,7-dihydro-5H-cyclopenta[d]pyrimidin-4-yl)phenyl)sulfamoyl)thiazol-2-yl)acetamide], the IC50 in assay [1] was determined as 279 nM; in assay [2] it was 296 nM.

Consider `C[C@H]1CCN1c1nc2c(c(-c3cc(C(N)=O)ns3)n1)CCC2` [Example 85, (S)-5-(2-(2-methylazetidin-1-yl)-6,7-dihydro-5H-cyclopenta[d]pyrimidin-4-yl)isothiazole-3-carboxamide], for which the IC50 in assay [1] amounted to 1370 nM; in assay [2], 1120 nM.

Turning to `C[C@H]1[C@H](N)CN1c1nc2c(c(-c3ccc(C(N)=O)cc3)n1)CCC2` [Example 93], the IC50 in assay [1] and in assay [2] was over 5000 nM in each case.

In the case of `c1ccc(-c2nc(C3CC3)nc3c2CCC3)cc1` [Example 96, 2-cyclopropyl-4-phenyl-6,7-dihydro-5H-cyclopenta[d]pyrimidine], the IC50 in assay [1] is over 5000 nM; in assay [2], 4660 nM.

Regarding `c1ccc(-c2nc(C3CCC3)nc3c2CCC3)cc1` [Example 97, 2-cyclobutyl-4-phenyl-6,7-dihydro-5H-cyclopenta[d]pyrimidine], the 50% inhibitory concentration (IC50) was found to be 2230 nM in assay [1] and 937 nM in assay [2].

Take `c1ccc(-c2nc(C3CC4CCC3C4)nc3c2CCC3)cc1` (stereo not shown) [Example 98, 2-(bicyclo[2.2.1]heptan-2-yl)-4-phenyl-6,7-dihydro-5H-cyclopenta[d]pyrimidine]: the IC50 in assay [1] and in assay [2] was over 5000 nM in each case.

On to `c1ccc(-c2nc(C3CNC3)nc3c2CCC3)cc1` [Example 99, 2-(azetidin-3-yl)-4-phenyl-6,7-dihydro-5H-cyclopenta[d]pyrimidine], for which the IC50 in assay [1] and in assay [2] was over 5000 nM throughout.

Turning to `Cc1nnc(-c2ccc(-c3nc(N4CC[C@@H]4C)nc4c3CCC4)cc2)o1` [Example 100, (S)-2-methyl-5-(4-(2-(2-methylazetidin-1-yl)-6,7-dihydro-5H-cyclopenta[d]pyrimidin-4-yl)phenyl)-1,3,4-oxadiazole], the IC50 in assay [1] and in assay [2] was 161 nM throughout.

With `C[C@H]1CCN1c1nc2c(c(-c3ccc(-c4nccn4C)cc3)n1)CCC2` [Example 101, (S)-4-(4-(1-methyl-1H-imidazol-2-yl)phenyl)-2-(2-methylazetidin-1-yl)-6,7-dihydro-5H-cyclopenta[d]pyrimidine], the figures for the half-inhibitory concentration (IC50) in assay [1] and in assay [2] were 119 nM and 69.1 nM, respectively.

With `C[C@H]1CCN1c1nc2c(c(-c3ccc(-n4cccn4)cc3)n1)CCC2` [Example 102, (S)-4-(4-(1H-pyrazol-1-yl)phenyl)-2-(2-methylazetidin-1-yl)-6,7-dihydro-5H-cyclopenta[d]pyrimidine], the values for the concentration for half-maximal inhibition (IC50) in assay [1] and in assay [2] were 420 nM and 279 nM, respectively.

On to `C[C@H]1CCN1c1nc2c(c(-c3ccc(-c4ccn[nH]4)cc3)n1)CCC2` [Example 103, (S)-4-(4-(1H-pyrazol-5-yl)phenyl)-2-(2-methylazetidin-1-yl)-6,7-dihydro-5H-cyclopenta[d]pyrimidine], for which the IC50 in assay [1] was 1280 nM; in assay [2] it was 707 nM.

In the case of `CC1CN(c2nc3c(c(-c4ccc(C(N)=O)cc4)n2)CCC3)C1C` (stereo not shown) [Example 105, 4-(2-(2,3-dimethylazetidin-1-yl)-6,7-dihydro-5H-cyclopenta[d]pyrimidin-4-yl)benzamide], the half-maximal inhibitory concentration (IC50) in assay [1] turned out to be 205 nM; in assay [2], 253 nM.

Take `C[C@@H]1[C@@H](C)CN1c1nc2c(c(-c3ccc(C(N)=O)cc3)n1)CCC2` [Example 108]: the IC50 in assay [1] was found to be 466 nM; in assay [2] it was 594 nM.

In the case of `C[C@@H]1CN(c2nc3c(c(-c4ccc(C(N)=O)cc4)n2)CCC3)[C@@H]1C` [Example 109, 4-(2-((2R,3R)-2,3-dimethylazetidin-1-yl)-6,7-dihydro-5H-cyclopenta[d]pyrimidin-4-yl)benzamide], the IC50 came out at 2540 nM in assay [1] and 3200 nM in assay [2].

On to `Cc1nc2cc(-c3nc(N4CC[C@@H]4C)nc4c3CCC4)ccc2s1` [Example 110, (S)-2-methyl-5-(2-(2-methylazetidin-1-yl)-6,7-dihydro-5H-cyclopenta[d]pyrimidin-4-yl)benzo[d]thiazole], for which the figures for the IC50 in assay [1] and in assay [2] were 136 nM and 322 nM, respectively.

Turning to `C#CC1CCN1c1nc2c(c(-c3ccc(C(N)=O)cc3)n1)CCC2` (stereo not shown) [Example 111, 4-(2-(2-ethynylazetidin-1-yl)-6,7-dihydro-5H-cyclopenta[d]pyrimidin-4-yl)benzamide], the IC50 came to 152 nM in assay [1] and 186 nM in assay [2].

As for `C[C@H]1[C@H](O)CN1c1nc2c(c(-c3cccc(C4CC4C(N)=O)c3)n1)CCC2` (stereo partly drawn) [Example 112, 2-(3-(2-((2S,3R)-3-hydroxy-2-methylazetidin-1-yl)-6,7-dihydro-5H-cyclopenta[d]pyrimidin-4-yl)phenyl)cyclopropane-1-carboxamide], the values for the IC50 in assay [1] and in assay [2] were 68.8 nM and 103 nM, respectively.

With `C[C@H]1CCN1c1nc2c(c(-c3cccc(C45CCC(C4)C5C(=O)O)c3)n1)CCC2` (stereo partly drawn) [Example 115, 1-(3-(2-((S)-2-methylazetidin-1-yl)-6,7-dihydro-5H-cyclopenta[d]pyrimidin-4-yl)phenyl)bicyclo[2.1.1]hexane-5-carboxylic acid], the IC50 in assay [1] is 109 nM; in assay [2], 94.1 nM.

As to `C[C@H]1CCN1c1nc2c(c(-c3cc(C(N)=O)cc(C(N)=O)c3)n1)CCC2` [Example 116, (S)-5-(2-(2-methylazetidin-1-yl)-6,7-dihydro-5H-cyclopenta[d]pyrimidin-4-yl)isophthalamide], the figures for the IC50 in assay [1] and in assay [2] were 39.8 nM and 54.6 nM, respectively.

Consider `CC1=C(c2nc3c(c(-c4ccc(C(N)=O)cc4)n2)CCC3)CCC1=O` [Example 117, 4-(2-(2-methyl-3-oxocyclopent-1-en-1-yl)-6,7-dihydro-5H-cyclopenta[d]pyrimidin-4-yl)benzamide], for which the IC50 in assay [1] stood at 3780 nM; in assay [2] it was 4780 nM.

On to `C[C@H]1CCN1c1nc2c(c(-c3ccc4c(O)n[nH]c4c3)n1)CCC2` [Example 120, (S)-6-(2-(2-methylazetidin-1-yl)-6,7-dihydro-5H-cyclopenta[d]pyrimidin-4-yl)-1H-indazol-3-ol], for which the figures for the IC50 in assay [1] and in assay [2] were 42.7 nM and 46.1 nM, respectively.

Consider `C[C@H]1[C@H](O)CN1c1nc2c(c(-c3ccc4c(c3)CN(C)C4=O)n1)CCC2` [Example 194, 5-[2-[(2S,3R)-3-hydroxy-2-methyl-azetidin-1-yl]-6,7-dihydro-5H-cyclopenta[d]pyrimidin-4-yl]-2-methyl-isoindolin-1-one], for which the IC50 was determined as 219 nM in assay [1] and 308 nM in assay [2].

As for `C[C@H]1[C@H](F)CN1c1nc2c(c(-c3ccc(S(N)(=O)=O)cc3)n1)CCC2` [Example 198, 4-[2-[(2S,3R)-3-fluoro-2-methyl-azetidin-1-yl]-6,7-dihydro-5H-cyclopenta[d]pyrimidin-4-yl]benzenesulfonamide], the IC50 in assay [1] is 98.3 nM; in assay [2], 124 nM.

For `C[C@H]1[C@H](O)CN1c1nc2c(c(-c3ccc(S(N)(=O)=O)cc3)n1)CCC2` [Example 199, 4-[2-[(2S,3R)-3-hydroxy-2-methyl-azetidin-1-yl]-6,7-dihydro-5H-cyclopenta[d]pyrimidin-4-yl]benzenesulfonamide], the IC50 in assay [1] was 149 nM; in assay [2] it was 282 nM.

`C[C@H]1CCN1c1nc2c(c(-c3cncc(S(N)(=O)=O)c3)n1)CCC2` [Example 205, 5-[2-[(2S)-2-methylazetidin-1-yl]-6,7-dihydro-5H-cyclopenta[d]pyrimidin-4-yl]pyridine-3-sulfonamide]: the results for the IC50 in assay [1] and in assay [2] were 108 nM and 79.9 nM, respectively.

Turning to `C[C@H]1CCN1c1nc(-c2ccccc2)c2cccnc2n1` [Example 212, 2-[(2S)-2-methylazetidin-1-yl]-4-phenyl-pyrido[2,3-d]pyrimidine], the IC50 amounted to 5590 nM in assay [1] and 10500 nM in assay [2].
